The text below walks through data of ChEMBL document CHEMBL4118137, “Design, synthesis and antineoplastic activity of novel hybrids of podophyllotoxin and indirubin against human leukaemia cancer cells as multifunctional anti-MDR agents” (Bioorg Med Chem Lett, 2018).

Test [1] has as its system K562/VCR. Nature of the test: Antiproliferative activity against human K562/VCR cells after 72 hrs by CCK8 assay. It counts as functional, cell-based.
Another test concerns K562. Briefly: Antiproliferative activity against human K562 cells after 72 hrs by CCK8 assay. The class given is functional, cell-based. Particulars: K562, 72 h. A general note: Formazan colour is commonly taken as a measure of viable cells.
Test [2] can be described thus: Resistance factor, ratio of IC50 for human K562/VCR cells to IC50 for human K562 cells. It counts as functional.
In test [3] the test system is K562/VCR. Briefly: Cell cycle arrest in human K562/VCR cells assessed as accumulation at G1 phase at 0.05 uM after 48 hrs by propidium iodide staining-based flow cytometric method (reference value: 46.20%). It counts as functional. In general terms: In flow cytometry, cells or beads pass a laser one at a time.
Test [4] deals with K562/VCR. Briefly: Cell cycle arrest in human K562/VCR cells assessed as accumulation at S phase at 0.05 uM after 48 hrs by propidium iodide staining-based flow cytometric method (reference value: 46.02%). It counts as functional.
Test [5] deals with K562/VCR. Nature of the test: Cell cycle arrest in human K562/VCR cells assessed as accumulation at G2 phase at 0.05 uM after 48 hrs by propidium iodide staining-based flow cytometric method (reference value: 7.78%). The class given is functional.
The subject of test [6] is K562/VCR. Briefly: Induction of apoptosis in human K562/VCR cells assessed as early apoptotic cells at 0.05 uM after 48 hrs by annexin-V-FITC/propidium iodide staining-based flow cytometric method (reference value: 6.90%). It counts as functional.
Test [7] concerns K562/VCR. Briefly: Induction of apoptosis in human K562/VCR cells assessed as late apoptotic cells at 0.05 uM after 48 hrs by annexin-V-FITC/propidium iodide staining-based flow cytometric method (reference value: 1.90%). It counts as functional.
The subject of test [8] is K562/VCR. Nature of the test: Induction of apoptosis in human K562/VCR cells assessed as necrotic cells at 0.05 uM after 48 hrs by annexin-V-FITC/propidium iodide staining-based flow cytometric method (reference value: 0.15%). The class given is functional.
Test [9] relates to K562/VCR. Nature of the test: Induction of apoptosis in human K562/VCR cells assessed as viable cells at 0.05 uM after 48 hrs by annexin-V-FITC/propidium iodide staining-based flow cytometric method (reference value: 91.05%). The class given is functional. The following applies: read-out: Activity.
Test [10] has as its system K562/VCR. Nature of the test: Reduction in mitochondrial membrane potential in human K562/VCR cells at 0.1 uM after 48 hrs by JC1 probe-based flow cytometric method (reference value: 2.65%). On the set-up: scale not given: the % may be the effect or the level left. It counts as functional.
The next test is filed under the species Homo sapiens. Nature of the test: Inhibition of alpha-tubulin polymerization in human K562/VCR cells assessed as disruption of microtubule organization at 0.05 uM after 24 hrs by DAPI staining-based immunofluorescence assay. It counts as cell-based.
For test [11], the system named is K562/VCR. Briefly: Induction of reactive oxygen species formation in human K562/VCR cells at 0.05 uM after 24 hrs by DCFH-DA staining-based flow cytometric method (reference value: 0.41%). It counts as functional.
For test [12], the target named is c-Jun N-terminal kinase, JNK (Homo sapiens) (UniProt P45983+P53779+P45984). Nature of the test: Induction of JNK phosphorylation in human K562/VCR cells at 0.05 uM after 48 hrs by Western blot method relative to beta-actin. It counts as cell-based. In general terms: In western blotting, separated proteins are transferred to a membrane and probed.
Test [13] deals with RAC-alpha serine/threonine-protein kinase (Homo sapiens) (UniProt P31749). Briefly: Inhibition of AKT phosphorylation in human K562/VCR cells at 0.05 uM after 48 hrs by Western blot method relative to beta-actin. The class given is cell-based.
Sequence of RAC-alpha serine/threonine-protein kinase (Homo sapiens) (P31749 whole entry): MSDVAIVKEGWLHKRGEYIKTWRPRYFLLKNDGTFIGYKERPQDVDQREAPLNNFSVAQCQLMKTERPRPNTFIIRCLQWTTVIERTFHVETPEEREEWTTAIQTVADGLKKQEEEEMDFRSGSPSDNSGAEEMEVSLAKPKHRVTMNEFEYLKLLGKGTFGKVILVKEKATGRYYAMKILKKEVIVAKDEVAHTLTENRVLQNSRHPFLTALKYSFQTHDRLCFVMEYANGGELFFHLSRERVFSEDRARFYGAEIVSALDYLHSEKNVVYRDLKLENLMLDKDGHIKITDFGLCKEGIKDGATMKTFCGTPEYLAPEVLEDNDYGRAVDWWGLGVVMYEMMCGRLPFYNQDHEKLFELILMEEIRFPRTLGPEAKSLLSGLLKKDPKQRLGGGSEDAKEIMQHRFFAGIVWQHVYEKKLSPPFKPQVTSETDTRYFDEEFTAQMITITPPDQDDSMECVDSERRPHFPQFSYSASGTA
Test [14] concerns K562/VCR. Nature of the test: Induction of apoptosis in human K562/VCR cells assessed as downregulation of CDK1 expression at 0.05 uM after 48 hrs by Western blot method relative to beta-actin. It counts as functional.
Test [15] relates to K562/VCR. Briefly: Induction of apoptosis in human K562/VCR cells assessed as downregulation of CDK2 expression at 0.05 uM after 48 hrs by Western blot method relative to beta-actin. It counts as functional.
For test [16], the system named is K562/VCR. Nature of the test: Induction of apoptosis in human K562/VCR cells assessed as upregulation of cleaved PARP expression at 0.05 uM after 48 hrs by Western blot method relative to beta-actin. The class given is functional.
Test [17] concerns K562/VCR. Briefly: Downregulation of P-gp expression in human K562/VCR cells at 0.05 uM after 48 hrs by Western blot method relative to beta-actin. The class given is functional.
Test [18] concerns K562/VCR. Nature of the test: Downregulation of MRP-1 expression in human K562/VCR cells at 0.05 uM after 48 hrs by Western blot method relative to beta-actin. It counts as functional.
The test system of test [19] is K562/VCR. Nature of the test: Induction of autophagy in human K562/VCR cells assessed as upregulation of beclin-1 expression at 0.05 uM after 48 hrs by Western blot method relative to beta-actin. The class given is functional.
The subject of test [20] is K562/VCR. Nature of the test: Induction of autophagy in human K562/VCR cells assessed as upregulation of LC3-2 expression at 0.05 uM after 48 hrs by Western blot method relative to beta-actin. The class given is functional.

The source made the active and inactive calls. No cut-off for these calls is given here.

One may read the IC50 as the point on the concentration scale where inhibition reaches its midpoint. As to `COc1cc([C@@H]2c3cc4c(cc3[C@H](O)[C@H]3COC(=O)[C@H]23)OCO4)cc(OC)c1OC` [PODOFILOX], the results for the IC50 in the test on K562/VCR [1] and with K562 were 50 nM and 25 nM, respectively. In addition, the “Ratio IC50” value in [2] was 2. Besides, the Activity in the test on K562/VCR [3] is given as 17.81%; with K562/VCR [4] it was 22.9%; in the test on K562/VCR [5], 59.28%; with K562/VCR [6], 28.1%; in the test with K562/VCR [7], 23.21%; in the test with K562/VCR [8], 0.08%. Besides, the Activity with K562/VCR [10] is given as 52.5%; in the test on K562/VCR [11], 45.54%. For the same molecule, the viability at 0.05 µM in the test with K562/VCR [9] was 48.6%. Further, the inhibition result in the test filed under Homo sapiens is “Active”. The fold change (FC) came out at 1.04 in [12]; 0.33 in test [13]; 0.27 in the test on K562/VCR [14]; 0.37 in the test on K562/VCR [15]; 0.61 with K562/VCR [16]; 0.27 with K562/VCR [17]. Also, the entries for the “fold change (FC)” value in the test on K562/VCR [18], in the test with K562/VCR [19] and in the test with K562/VCR [20] were 0.22, 0.78 and 0.65, respectively.
As for `COc1cc([C@@H]2c3cc4c(cc3[C@H](OC(=O)CCN3C(=O)/C(=C5\Nc6ccccc6C5=O)c5ccccc53)[C@H]3COC(=O)[C@H]23)OCO4)cc(OC)c1OC`, the IC50 in the test on K562/VCR [1] came to 2140 nM; in the test with K562, 1300 nM. For the same molecule, in test [2], the “Ratio IC50” value worked out at 1.64.
In the case of `COc1cc([C@@H]2c3cc4c(cc3[C@H](OC(=O)CCCN3C(=O)/C(=C5\Nc6ccccc6C5=O)c5ccccc53)[C@H]3COC(=O)[C@H]23)OCO4)cc(OC)c1OC`, the IC50 in the test with K562/VCR [1] was determined as 1750 nM; in the test with K562, 1790 nM. The “Ratio IC50” value in test [2] turned out to be 0.97.
Turning to `O=C1Nc2ccccc2/C1=C1/Nc2ccccc2C1=O` [INDIRUBIN], the IC50 with K562/VCR [1] and in the test with K562 was > 100000 nM throughout.
In the case of `CC[C@]1(O)C[C@H]2CN(CCc3c([nH]c4ccccc34)[C@@](C(=O)OC)(c3cc4c(cc3OC)N(C=O)[C@H]3[C@@](O)(C(=O)OC)[C@H](OC(C)=O)[C@]5(CC)C=CCN6CC[C@]43[C@@H]65)C2)C1` [VINCRISTINE], the values for the IC50 in the test on K562/VCR [1] and with K562 were 4740 nM and 178 nM, respectively. Also, the “Ratio IC50” value in test [2] amounted to 26.61.
